Reference: ChEMBL document CHEMBL1250451, “Mechanistic insights into a Ca2+-dependent family of alpha-mannosidases in a human gut symbiont” (Nat Chem Biol, 2010)
Active and inactive are the calls of the source. The rule behind the calls is not given here.

Experiments:
Type in all cases: protein assay
[1] = target: T1, Glycoside hydrolase family 92 (BT_3963) (Bacteroides thetaiotaomicron) (UniProt Q8A0Q8); assay: Activity of Bacteroides thetaiotaomicron GH92 alpha-mannosidase GH92 alpha-mannosidase 3963 assessed as mannose release at 1 mM after 16 hrs by HPLC relative to untreated control after 16 hrs by HPLC
T1 sequence (whole entry): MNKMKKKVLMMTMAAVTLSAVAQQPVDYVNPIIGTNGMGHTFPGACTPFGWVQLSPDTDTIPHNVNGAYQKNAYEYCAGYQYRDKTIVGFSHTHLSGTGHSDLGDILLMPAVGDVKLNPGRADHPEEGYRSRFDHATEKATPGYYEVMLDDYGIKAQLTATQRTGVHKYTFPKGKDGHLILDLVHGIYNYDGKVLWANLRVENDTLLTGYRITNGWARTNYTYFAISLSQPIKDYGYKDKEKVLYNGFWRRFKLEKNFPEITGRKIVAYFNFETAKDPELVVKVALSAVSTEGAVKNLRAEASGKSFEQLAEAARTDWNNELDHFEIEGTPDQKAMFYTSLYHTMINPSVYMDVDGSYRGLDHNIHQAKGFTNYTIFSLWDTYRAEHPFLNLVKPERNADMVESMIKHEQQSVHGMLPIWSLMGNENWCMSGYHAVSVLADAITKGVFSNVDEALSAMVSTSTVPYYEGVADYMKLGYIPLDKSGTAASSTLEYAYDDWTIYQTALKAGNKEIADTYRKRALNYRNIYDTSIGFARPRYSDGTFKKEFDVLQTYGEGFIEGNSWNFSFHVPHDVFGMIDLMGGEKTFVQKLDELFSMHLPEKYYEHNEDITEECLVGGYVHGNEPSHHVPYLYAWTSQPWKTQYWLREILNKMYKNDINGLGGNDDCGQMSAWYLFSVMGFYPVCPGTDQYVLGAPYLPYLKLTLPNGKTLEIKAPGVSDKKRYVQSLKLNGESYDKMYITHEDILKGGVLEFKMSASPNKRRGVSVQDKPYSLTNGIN

[2] = target: T2, Glycoside hydrolase family 92 (BT_3962) (Bacteroides thetaiotaomicron) (UniProt Q8A0Q9); assay: Activity of Bacteroides thetaiotaomicron GH92 alpha-mannosidase GH92 alpha-mannosidase 3962 assessed as mannose release at 1 mM after 16 hrs by HPLC relative to untreated control after 16 hrs by HPLC
T2 sequence (whole entry): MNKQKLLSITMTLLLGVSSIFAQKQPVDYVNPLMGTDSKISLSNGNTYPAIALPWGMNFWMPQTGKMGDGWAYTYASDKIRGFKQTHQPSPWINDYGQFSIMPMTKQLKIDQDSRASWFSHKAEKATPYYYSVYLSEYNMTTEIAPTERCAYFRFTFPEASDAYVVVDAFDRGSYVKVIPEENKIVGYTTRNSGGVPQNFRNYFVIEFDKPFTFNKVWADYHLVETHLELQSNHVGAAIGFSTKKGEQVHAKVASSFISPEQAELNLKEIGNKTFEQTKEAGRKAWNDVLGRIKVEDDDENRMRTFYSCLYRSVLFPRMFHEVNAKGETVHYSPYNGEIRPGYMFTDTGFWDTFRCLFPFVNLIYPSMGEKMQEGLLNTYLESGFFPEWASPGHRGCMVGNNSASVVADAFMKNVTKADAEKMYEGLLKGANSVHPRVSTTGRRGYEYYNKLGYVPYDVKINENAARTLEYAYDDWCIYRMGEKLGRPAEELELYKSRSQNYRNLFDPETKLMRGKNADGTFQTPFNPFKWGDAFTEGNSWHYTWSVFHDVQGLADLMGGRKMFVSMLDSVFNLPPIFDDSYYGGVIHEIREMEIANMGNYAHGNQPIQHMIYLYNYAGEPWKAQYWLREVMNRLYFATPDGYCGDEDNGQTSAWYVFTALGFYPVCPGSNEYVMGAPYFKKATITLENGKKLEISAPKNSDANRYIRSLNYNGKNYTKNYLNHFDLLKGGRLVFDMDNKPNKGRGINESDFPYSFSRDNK

[3] = target: T3, Alpha-1,2-mannosidase (BT_2629) (Bacteroides thetaiotaomicron) (UniProt Q8A4H0); assay: Activity of Bacteroides thetaiotaomicron GH92 alpha-mannosidase GH92 alpha-mannosidase 2629 assessed as mannose release at 1 mM after 16 hrs by HPLC relative to untreated control after 16 hrs by HPLC
T3 sequence (whole entry): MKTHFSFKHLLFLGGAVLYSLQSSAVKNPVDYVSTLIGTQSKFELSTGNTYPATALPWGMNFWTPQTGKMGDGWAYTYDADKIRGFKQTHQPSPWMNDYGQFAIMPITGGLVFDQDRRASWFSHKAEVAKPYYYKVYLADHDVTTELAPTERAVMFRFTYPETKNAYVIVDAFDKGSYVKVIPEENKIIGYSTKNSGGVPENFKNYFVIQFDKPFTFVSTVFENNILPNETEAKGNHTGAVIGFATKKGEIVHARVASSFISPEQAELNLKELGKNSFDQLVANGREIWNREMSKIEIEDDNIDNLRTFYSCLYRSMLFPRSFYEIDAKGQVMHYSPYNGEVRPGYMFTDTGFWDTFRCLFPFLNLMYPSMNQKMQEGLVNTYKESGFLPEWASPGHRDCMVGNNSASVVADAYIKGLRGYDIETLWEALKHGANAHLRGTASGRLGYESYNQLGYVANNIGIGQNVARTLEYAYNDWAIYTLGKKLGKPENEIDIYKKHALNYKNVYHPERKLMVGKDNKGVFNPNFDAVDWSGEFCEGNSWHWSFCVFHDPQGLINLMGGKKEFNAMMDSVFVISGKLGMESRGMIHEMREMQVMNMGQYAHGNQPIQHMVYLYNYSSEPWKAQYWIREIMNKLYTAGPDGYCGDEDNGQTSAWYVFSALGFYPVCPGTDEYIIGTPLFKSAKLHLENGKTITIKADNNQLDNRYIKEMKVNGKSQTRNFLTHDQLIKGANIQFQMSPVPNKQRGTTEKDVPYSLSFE

Row | Activity [1] | Activity [2] | Activity [3] | SMILES
1 | inactive | 0.0031% | inactive | OC[C@H]1O[C@H](OC[C@H]2O[C@H](O)[C@@H](O)[C@@H](O)[C@@H]2O)[C@@H](O)[C@@H](O)[C@@H]1O
2 | inactive | 100% | inactive | OC[C@H]1O[C@H](O[C@H]2[C@@H](O)[C@H](O)[C@@H](CO)O[C@@H]2O)[C@@H](O)[C@@H](O)[C@@H]1O
3 | inactive | inactive | inactive | OC[C@H]1O[C@H](O[C@@H]2[C@H](O)[C@@H](O)O[C@H](CO)[C@H]2O)[C@@H](O)[C@@H](O)[C@@H]1O
4 | inactive | 0.042% | inactive | OC[C@H]1O[C@H](O[C@H]2[C@H](O)[C@H](O)[C@@H](O)O[C@@H]2CO)[C@@H](O)[C@@H](O)[C@@H]1O
